# Source: patent publication US20090068143A1, “ORALLY EFFECTIVE C[…]” (priority 2005, published 2009)
# Marks after values point to notes of the source that are not given here.
# Experiments:
# [1] = tested on: MCP-1; experiment: Real-time RT-PCR gene expression in CNS of MOG induced EAE: MCP-1; format: in vivo, mouse; settings: 40 mg/kg p.o., day 31, over naive animals
# Procedure: Total RNA is prepared using SV total RNA isolation system (Promega). The brains and spinal cords, which were removed on day 31 from five animals treated with vehicle (i.e. untreated) or 40 mg/kg p.o. of compound 18F (i.e. treated) in the MOG-induced EAE study, were homogenized in lysis buffer. The lysates were transferred to an RNA isolation column, treated with DNAse, washed and eluted according to kit instructions. RNA concentrations were determined using GeneQuant II (Pharmacia-Amersham). Complementary DNA (cDNA) was synthesized from total RNA using […] II reverse transcriptase (Life Technologies). […] Quantitative real-time RT-PCR included 1 μl of the cDNA, 300 nM of the appropriate forward and reverse primers (according to the gene monitored) and 7.5 μl of the reaction mix containing buffer, nucleotides, Taq polymerase and SYBER green (SYBER Green master mix, Applied Biosystems), in a total reaction volume of 15 μl. […] During each annealing step, the amount of the amplified product was measured by the fluorescence of the double strand DNA binding dye, SYBER Green. The cycle of threshold (CT), representing the PCR cycle at which an increase in fluorescence above a baseline signal can be first detected, was determined for each product. […] Results were expressed as fold increase of gene expression in treated or untreated animals above the naive animals. […]
# [2] = tested on: MBP induced acute EAE; experiment: MBP induced acute EAE; format: in vivo, Lewis rats
# Procedure: In the present study, EAE was induced by injection of Myelin Basic Protein (MBP), a method known to model the acute phase of MS. In this model the onset of the disease is observed by the appearance of clinical symptoms about 10 days after induction. The disease progresses and the clinical score increases and peaks around day 15 and spontaneous recovery is observed around day 23 after induction of the disease.
# Female Lewis rats (average body weight 130-180 g, Harlan, Israel) were injected s.c. into the hind paws with 25 μg of purified guinea pig myelin basic protein (MBP, Sigma) emulsified in 0.1 ml of Complete Freund's Adjuvant (Difco). Animals were maintained on a 12 hours light/12 hours dark regimen, at a constant temperature of 22° C., with food and water ad libitum. Starting from day 8 following induction, animals were followed up on a daily basis. The results are recorded as clinical score; score of 0 indicates a normal animal with no clinical signs, 0.5 indicates a loss of tonicity in the tail's distal part, 1 indicates whole tail paralysis, 1.5 indicates hind legs weakness in one leg, 2 indicates hind legs weakness in two legs, 2.5 indicates fore legs paralysis in one leg, 3 indicates paralysis of all four legs, 4 indicates complete body paralysis and moribund state and 5 indicates death. The clinical score of the animals is recorded for 15 days following onset of disease until the end of the study 25 days following induction and the area under the curve (AUC) is calculated over this period of time.
# Few routes of administration were assessed and the treatments were either administered intravenously (in CE vehicle) or orally by gavage (in PB vehicle) at volume dose of 5 ml/kg.
# Results are expressed as mean±SEM and the differences between the treatment groups were analyzed by analysis of variance (ANOVA) followed by Tukey's post hoc test. A value of p<0.05 was considered to be statistically significant and is indicated on the figure by an asterisk over the relevant treatment group.
# Compound 18A was dissolved in CREMOPHOR EL®:ethanol and further diluted in physiological buffer prior to i.v. administration. It is now disclosed that compound 18F could be dissolved directly in 80 mM phosphate buffer (pH 6.4) and administered p.o. Compound 18F was administered by oral gavage at doses of 20, 30, 40, 50 and 60 mg/kg to animals showing clinical signs of the disease. Each treatment group comprised at least 10 animals at onset of disease. At some doses, experiments were repeated up to four times.
# [3] = tested on: Taxol® induced neuropathic pain; experiment: Taxol® induced neuropathic pain; format: in vivo, Sprague Dawley rats
# Procedure: Male Sprague Dawley rats (average body weight 150-200 g, Harlan, Israel) were administered i.p. with 6 mg/kg Taxol® (Bristol Myers Squibb, USA) every other day for 9 days. On day 13, baseline pain threshold was measured. One hour later, the animals were administered with 5 ml/kg i.p. of vehicle (PB) only and pain threshold was re-established. After an additional hour animals were treated with various doses of compound 18F ranging from 0.5 mg/kg up to 10 mg/kg administered i.p. Morphine at 5 mg/kg i.p. and gabapentin at 100 mg/kg i.p served as positive controls. Each treatment group comprised at least eight animals. One hour post drug administration pain threshold was monitored using thermal and mechanical stimuli as previously described. At the end of the study, rats were euthanized with sodium pentobarbitone 100 mg/kg i.p. Sample rats were then transfused with saline and heparinized 4% formaldehyde solution. The L4-L5 area of the spinal cord and the sciatic nerve were taken for histopathology assessment.
# The time latencies for thermal hyperalgesia, and force needed to induce pain of the different treatment groups are compared, using one way ANOVA (analysis of variance), followed by Duncan's post hoc test. A p<0.05 value was considered statistically significant and is indicated on the figure by an asterisk over the relevant treatment group.
# [4] = tested on: IL-1β; experiment: Real-time RT-PCR gene expression in CNS of MOG induced EAE: IL-1β; format: in vivo, mouse
# Procedure: Total RNA is prepared using SV total RNA isolation system (Promega). The brains and spinal cords, which were removed on day 31 from five animals treated with vehicle (i.e. untreated) or 40 mg/kg p.o. of compound 18F (i.e. treated) in the MOG-induced EAE study, were homogenized in lysis buffer. The lysates were transferred to an RNA isolation column, treated with DNAse, washed and eluted according to kit instructions. RNA concentrations were determined using GeneQuant II (Pharmacia-Amersham). Complementary DNA (cDNA) was synthesized from total RNA using […] II reverse transcriptase (Life Technologies). 2 μg of total RNA were combined with an oligo (dT)15 primer, 0.5 mM dNTP mix, 8 units of reverse transcriptase and other reaction components up to a final volume of 20 μl, according to the kit instructions. The reaction mixture was incubated at 42° C. for 45 min and inactivated at 70° C. for 15 minutes. Quantitative real-time RT-PCR included 1 μl of the cDNA, 300 nM of the appropriate forward and reverse primers (according to the gene monitored) and 7.5 μl of the reaction mix containing buffer, nucleotides, Taq polymerase and SYBER green (SYBER Green master mix, Applied Biosystems), in a total reaction volume of 15 μl. Gene amplification was obtained using the GeneAmp 5700 sequence detection system (Applied Biosystems). […] During each annealing step, the amount of the amplified product was measured by the fluorescence of the double strand DNA binding dye, SYBER Green. The cycle of threshold (CT), representing the PCR cycle at which an increase in fluorescence above a baseline signal can be first detected, was determined for each product. […] Results were expressed as fold increase of gene expression in treated or untreated animals above the naive animals. […]
# The results expressed as folds gene expression over naive animals (following normalization to Cyclophilin) are compiled in the following table. […] Statistical significance was analyzed by unpaired two-tailed t-test and one asterisk (*) indicates statistical significance of p<0.05, whereas ** indicates statistical significance of p<0.01.
smiles,measurement,setting,value
"CCCCCCC(C)(C)c1cc(O)c([C@H]2CC(=O)C3CC2C3(C)C)c(OC(=O)/C=C/C(=O)O)c1 (single isomer, unassigned; (-)) [Compound 18F, (−)-4-{4-[1,1-Dimethylheptyl]-2-fumarate-6-hydroxy-phenyl}-6,6-dimethyl-bicyclo[3.1.1]heptan-2-one]","Fold gene expression MCP-1, Brain, Treated",[1],5.5 fold
same,"Fold gene expression MCP-1, Spinal Cord, Treated",[1]; untreated 19,68 fold
same,effect on clinical outcome (mean group score),[2]; 20 mg/kg p.o.,does not significantly affect the clinical outcome
same,effect on mean of maximal scores (MMS),[2]; 20 mg/kg p.o.,only a trend of improvement
same,effect on clinical outcome (mean group score),[2]; 30 mg/kg p.o.,positive trend of score reduction
same,reduction of AUC,"[2]; 30 mg/kg p.o., ns",more than 20%
same,reduction of AUC,"[2]; 40 mg/kg p.o., p<0.05",33%
same,reduction of AUC,"[2]; 50 mg/kg p.o., p<0.05",42%
same,animals died before study completion,[2]; 60 mg/kg p.o.,7%
same,reduction of AUC,"[2]; 60 mg/kg p.o., p<0.05",43%
same,increase of pain threshold over vehicle treated animals (mechanical hyperalgesia),"[2]; 60 mg/kg p.o., preliminary",25%
same,reduction in MMS,[2]; 30-60 mg/kg p.o.,at least 30%
same,CB1 mediated side effects,[2]; repeated p.o. administration,no CB1 mediated side effects were observed
same,effect on pain threshold,"[3]; 10 mg/kg i.p., baseline 15 gm, untreated 5 gm",increased the pain threshold back to pre-Taxol® baseline
same,effect on pain threshold versus vehicle,"[3]; 1, 5 and 10 mg/kg i.p.",statistically significant from the vehicle treated animals
same,"Fold gene expression IL-1β, Brain, Treated","[4]; 40 mg/kg p.o., day 31, over naive animals, untreated 5.5",3* fold
same,"Fold gene expression IL-1β, Spinal Cord, Treated","[4]; 40 mg/kg p.o., day 31, over naive animals, untreated 11",4* fold
same,IL-1β overexpression in brain and spinal cord,"[4]; treated p.o., untreated 5 to 11-fold",3-4 fold
